Like-named read-outs stand apart in the source and are kept apart here.
Assays:
[1] = Compound 1 and metabolite levels in rat plasma, 2 week toxicology study; assay type: in vivo
c-Kit = target: T1, c-Kit (Homo sapiens, UniProt P10721); assay: In vitro RTK kinase assay (TRF or radioactive); assay type: biochemical; conditions: Table 13
T1 construct: Recombinant proteins corresponding to the cytoplasmic domains of the c-Kit and FLT-3 receptors were purchased (Proquinase); purchased Proquinase

ERK (MAPK) = ERK (MAPK) phosphorylation in HCT116 tumors; assay type: in vivo; conditions: dose- and time-dependent
[2] = tested on: PC3 human prostate tumor xenografts
[3] = tested on: FGF-2 supplemented Matrigel neovascularization
[4] = tested on: VEGFR1, VEGFR2, PDGFRβ, and FGFR1; conditions: KM12L4a tumors after treatment
TF-1 cells = assay: cells; conditions: Homo sapiens, TF-1, 72 h
[5] = Monkey multiple oral dose experiment, plasma levels; assay type: in vivo; conditions: compound 1 5 mg/kg BID oral, day 1 and 14 samples
OPM-2 cells = conditions: Grand et al., Leukemia 2004; cited from earlier work
[6] = tested on: cancer and primary cell lines; assay: antiproliferative activity, MTS assay, 27 cancer and primary cell lines (Table 6); assay type: cell-based; conditions: Homo sapiens, 26 out of the 27 cell lines, 72 hours
Protocol: . […] The EC50 values were calculated using nonlinear regression. […]

CYP2D6 = CYP2D6 (Homo sapiens, UniProt P10635); assay: Inhibition of cDNA derived CYP isozymes; assay type: in vitro ADME; conditions: cDNA-derived (recombinant) CYP2D6
CYP2D6, sequence (P10635 whole entry): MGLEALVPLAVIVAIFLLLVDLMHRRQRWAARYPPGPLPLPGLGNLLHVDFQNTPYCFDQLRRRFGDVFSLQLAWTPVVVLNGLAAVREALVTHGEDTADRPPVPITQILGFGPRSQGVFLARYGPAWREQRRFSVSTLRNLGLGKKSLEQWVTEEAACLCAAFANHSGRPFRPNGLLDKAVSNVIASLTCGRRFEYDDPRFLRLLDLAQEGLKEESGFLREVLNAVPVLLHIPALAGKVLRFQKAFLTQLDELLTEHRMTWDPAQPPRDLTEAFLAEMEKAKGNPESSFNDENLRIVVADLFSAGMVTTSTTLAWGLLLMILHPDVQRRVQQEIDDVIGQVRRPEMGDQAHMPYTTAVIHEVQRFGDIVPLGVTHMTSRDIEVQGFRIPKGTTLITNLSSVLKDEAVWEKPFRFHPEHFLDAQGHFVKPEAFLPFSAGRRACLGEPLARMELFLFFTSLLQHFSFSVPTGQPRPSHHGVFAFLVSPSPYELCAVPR

CYP2C9 = CYP2C9 (Homo sapiens, UniProt P11712); assay: Inhibition of cDNA derived CYP isozymes; assay type: in vitro ADME; conditions: cDNA-derived (recombinant) CYP2C9
CYP2C9, sequence (P11712 whole entry): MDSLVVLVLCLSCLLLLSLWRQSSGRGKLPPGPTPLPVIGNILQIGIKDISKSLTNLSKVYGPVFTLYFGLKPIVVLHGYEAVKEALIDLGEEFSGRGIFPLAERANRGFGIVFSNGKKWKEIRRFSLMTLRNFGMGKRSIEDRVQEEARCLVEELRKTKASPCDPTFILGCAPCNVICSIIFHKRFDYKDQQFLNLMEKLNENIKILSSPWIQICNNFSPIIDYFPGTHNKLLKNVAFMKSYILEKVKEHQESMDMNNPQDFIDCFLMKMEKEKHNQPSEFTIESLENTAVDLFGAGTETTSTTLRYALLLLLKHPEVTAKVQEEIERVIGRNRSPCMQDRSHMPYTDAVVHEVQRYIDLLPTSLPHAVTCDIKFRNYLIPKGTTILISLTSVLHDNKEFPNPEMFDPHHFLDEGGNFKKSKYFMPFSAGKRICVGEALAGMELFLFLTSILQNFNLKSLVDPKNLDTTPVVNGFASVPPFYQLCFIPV
From the text: (§1) The compound was stable in human liver microsomes. […].

CYP3A4 = CYP3A4 (Homo sapiens, UniProt P08684); assay: Inhibition of cDNA derived CYP isozymes; assay type: in vitro ADME; conditions: cDNA-derived (recombinant) CYP3A4
CYP3A4, sequence (P08684 whole entry): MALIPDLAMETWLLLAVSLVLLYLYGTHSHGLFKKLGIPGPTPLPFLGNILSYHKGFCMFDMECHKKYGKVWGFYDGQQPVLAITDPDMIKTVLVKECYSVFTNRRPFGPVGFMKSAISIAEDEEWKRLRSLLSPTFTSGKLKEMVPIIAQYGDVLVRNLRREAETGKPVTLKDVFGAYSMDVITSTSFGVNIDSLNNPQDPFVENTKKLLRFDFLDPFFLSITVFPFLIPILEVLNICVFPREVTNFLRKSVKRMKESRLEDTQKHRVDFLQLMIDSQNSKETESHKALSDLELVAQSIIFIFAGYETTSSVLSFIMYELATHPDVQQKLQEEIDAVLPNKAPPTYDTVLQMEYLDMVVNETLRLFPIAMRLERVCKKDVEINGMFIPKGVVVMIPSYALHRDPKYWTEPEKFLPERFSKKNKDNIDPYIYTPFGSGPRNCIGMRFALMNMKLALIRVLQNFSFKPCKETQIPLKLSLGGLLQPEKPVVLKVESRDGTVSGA
From the text: as §1

CYP1A2 = target: T2, CYP1A2 (Homo sapiens, UniProt P05177); assay: Inhibition of cDNA derived CYP isozymes; assay type: in vitro ADME; conditions: cDNA-derived (recombinant) CYP1A2
T2 sequence (P05177 1-516): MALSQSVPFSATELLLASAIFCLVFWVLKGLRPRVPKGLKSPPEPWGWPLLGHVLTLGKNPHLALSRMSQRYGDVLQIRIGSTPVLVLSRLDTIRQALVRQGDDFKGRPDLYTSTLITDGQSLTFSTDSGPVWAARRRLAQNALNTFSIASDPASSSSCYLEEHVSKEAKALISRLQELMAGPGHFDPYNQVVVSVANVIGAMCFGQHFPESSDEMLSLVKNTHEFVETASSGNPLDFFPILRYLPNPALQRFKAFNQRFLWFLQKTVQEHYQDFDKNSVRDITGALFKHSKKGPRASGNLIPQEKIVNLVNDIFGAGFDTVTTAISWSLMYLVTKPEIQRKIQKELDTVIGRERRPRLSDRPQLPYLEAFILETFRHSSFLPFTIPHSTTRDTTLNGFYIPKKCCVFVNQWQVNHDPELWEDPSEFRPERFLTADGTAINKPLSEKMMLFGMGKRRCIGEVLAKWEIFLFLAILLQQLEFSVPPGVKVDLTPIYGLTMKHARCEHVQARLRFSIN
From the text: as §1

CYP2C19 = CYP2C19 (Homo sapiens, UniProt P33261); assay: Inhibition of cDNA derived CYP isozymes; assay type: in vitro ADME; conditions: cDNA-derived (recombinant) CYP2C19
CYP2C19, sequence (P33261 whole entry): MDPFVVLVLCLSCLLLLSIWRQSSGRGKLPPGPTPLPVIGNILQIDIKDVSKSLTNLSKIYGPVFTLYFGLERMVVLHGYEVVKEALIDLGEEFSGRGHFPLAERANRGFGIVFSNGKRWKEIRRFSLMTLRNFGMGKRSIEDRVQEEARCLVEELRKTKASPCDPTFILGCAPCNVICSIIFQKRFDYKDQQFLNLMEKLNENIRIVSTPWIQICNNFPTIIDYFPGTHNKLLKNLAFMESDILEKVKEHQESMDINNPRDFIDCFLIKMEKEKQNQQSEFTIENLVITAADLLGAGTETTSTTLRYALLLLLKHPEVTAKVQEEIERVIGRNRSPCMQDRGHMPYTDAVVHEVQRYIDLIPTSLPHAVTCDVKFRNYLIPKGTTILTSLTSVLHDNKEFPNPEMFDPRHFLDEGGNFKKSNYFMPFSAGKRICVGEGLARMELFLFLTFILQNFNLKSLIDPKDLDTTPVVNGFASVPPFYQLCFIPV

T1 sequence (P10721 546-976 limits assumed): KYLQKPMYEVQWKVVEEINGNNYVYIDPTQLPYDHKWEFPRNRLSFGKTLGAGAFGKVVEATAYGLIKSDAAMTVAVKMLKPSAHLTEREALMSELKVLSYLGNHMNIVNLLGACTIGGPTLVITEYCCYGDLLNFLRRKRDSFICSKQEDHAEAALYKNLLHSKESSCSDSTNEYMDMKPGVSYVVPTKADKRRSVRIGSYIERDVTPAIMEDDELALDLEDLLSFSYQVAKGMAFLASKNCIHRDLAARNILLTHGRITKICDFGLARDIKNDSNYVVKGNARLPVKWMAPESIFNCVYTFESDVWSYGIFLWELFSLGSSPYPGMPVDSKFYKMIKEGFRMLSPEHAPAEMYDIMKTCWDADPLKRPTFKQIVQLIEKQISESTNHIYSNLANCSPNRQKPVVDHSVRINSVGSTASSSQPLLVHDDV

Nc1c(-c2nc3ccc(N4CCNCC4)cc3[nH]2)c(=O)[nH]c2cccc(F)c12 [Compound 3, 4-Amino-5-fluoro-3-(5-piperazin-1-yl-1H-benzimidazol-2-yl)quinolin-2(1H)-one]
Des-CH3 (ng/ml), estimated from UV ([1]; compound 1 30 mg/kg PO, Day 14, 1-2 hr): 6 ng/mL | Des-CH3 (ng/ml), estimated from UV ([1]; compound 1 30 mg/kg PO, Day 14, 4-8 hr): 12 ng/mL | Des-CH3 (ng/ml), estimated from UV ([1]; compound 1 100 mg/kg PO, Day 1, 1-2 hr): 35 ng/mL | Des-CH3 (ng/ml), estimated from UV ([1]; compound 1 100 mg/kg PO, Day 1, 4-8 hr): 84 ng/mL | IC50 (c-Kit): 0.0002 µM

CN1CCN(c2ccc3nc(-c4c(N)c5c(F)cccc5[nH]c4=O)[nH]c3c2)CC1 [Compound 1]
phosphorylation of ERK (MAPK) (ERK (MAPK)): inhibited | % TGI vs. vehicle ([2]; 100 mpk q 2 days): 75% | % TGI vs. vehicle ([2]; 100 mpk q 3 days): 68% | % TGI vs. vehicle ([2]; 100 mpk q 4 days): 66% | % TGI vs. vehicle ([2]; 100 mpk qd, days 1-11): 60% | % Hb inhibition vs. Vehicle treatment of Matrigel + FGF ([3]; 30 mg/kg): 71% | % Hb inhibition vs. Vehicle treatment of Matrigel + FGF ([3]; 200 mg/kg): 89% | % Hb inhibition vs. Vehicle treatment of Matrigel + FGF ([3]; 300 mg/kg): 91% | inhibition vs. FGF-supplemented controls ([3]; range over 30, 100, 200 and 300 mg/kg): 70-92% | phosphorylation of VEGFR1, VEGFR2, PDGFRβ, and FGFR1 [4]: inhibited in a time- and dose-dependent manner | EC50 (TF-1 cells): ≤ 0.05 µM

C[N+]1([O-])CCN(c2ccc3nc(-c4c(N)c5c(F)cccc5[nH]c4=O)[nH]c3c2)CC1 [Compound 2, 4-Amino-5-fluoro-3-[5-(4-methyl-4-oxidopiperazin-1-yl)-1H-benzimidazol-2-yl]quinolin-2(1H)-one]
presence of the N-oxide metabolite in monkey plasma [5]: not detected | IC50 (c-Kit): 0.0002 µM

CCN(CC)CCCCNc1ncc2cc(-c3cc(OC)cc(OC)c3)c(NC(=O)NC(C)(C)C)nc2n1 [PD173074]
cytotoxic response / apoptosis in OPM2 cells (OPM-2 cells): failed to induce apoptosis

CN1CCN(c2ccc3[nH]c(-c4c(N)c5c(F)cccc5[nH]c4=O)nc3c2)CC1 [Example 166]
EC50 [6]: < 10 µM

CN1CCN(c2ccc3nc(-c4c(N)c5c(F)cccc5[nH]c4=O)[nH]c3c2)CC1
IC50 (CYP2D6): > 25 µM | tolerability ([3]; mouse, in vivo): well tolerated | IC50 (CYP2C9): > 25 µM | IC50 (CYP3A4): > 25 µM | IC50 (CYP1A2): > 25 µM | IC50 (CYP2C19): > 25 µM

From US7825132B2, “Inhibition of FGFR3 and treatment of multiple myeloma” (Novartis Vaccines and Diagnostics, Inc., priority 2002, dated 2010)
